According to patent publication US20160095958A1, “BONE REGENERATION USING STROMAL VASCULAR FRACTION, PLATELET-DERIVED GROWTH FACTOR-RICH HYDROGEL, THREE-DIMENSIONAL PRINTED POLY-EPSILON-CAPROLACTONE SCAFFOLDS” (THE JOHNS HOPKINS UNIVERSITY, priority 2013, published 2016):

Experiments:
Assay type in all cases: cell-based, human
[1] = tested on: ASCs; assay: Monolayer osteogenic differentiation of ASCs (Alizarin Red S, calcium quantification); details: for calcium deposition per cell / total calcium deposition: ASCs in OM for 21 days, PDGF-BB 0, 2, 20 ng/mL or AG1295 0, 1, 10 μM
Description: (§1) Vascular medium (VM) consisted of: Endothelial Basal Medium-2 (Lonza), 6% FBS, 1% penicillin/streptomycin, 10 ng/mL VEGF165, 1 ng/mL FGF-2, and 1 μg/mL L-ascorbic acid-2-phosphate (Sigma). For monolayer osteogenic differentiation experiments, control medium consisted of low glucose DMEM (GIBCO Invitrogen), 6% FBS, and 1% penicillin/streptomycin; Osteogenic Medium (OM) consisted of control medium plus 10 mM β-glycerophosphate (Sigma) and 50 μM L-ascorbic acid-2-phosphate. For osteogenic differentiation in fibrin gels, OM also included 10 ng/mL VEGF165 and 1 ng/mL FGF-2 to support vascular viability. The composition of FGF-2 and dexamethasone in VM and OM were optimized to support both vascular and osteogenic development (FIG. 2). […] All growth factors were purchased from PeproTech.
(§2) For monolayer experiments, ASCs were seeded at 5000 cells/cm^2 and cultured in either control medium or OM for 21 days, with the addition of either PDGF-BB or PDGF receptor inhibitor tyrphostin AG1295 (Santa Cruz Biotechnology). Mineralization was assessed via Alizarin Red S staining and quantification of calcium content. For fibrin gel experiments, samples were cultured in VM for up to 8 days followed by up to 12 days of OM supplemented with VEGF and FGF-2. Mineralization was assessed via quantification of calcium content normalized to DNA content. For Alizarin Red S staining, monolayers were washed twice with PBS, fixed with 3.7% formaldehyde for 20 min, and then washed again three times. Samples were subsequently incubated for 10 min with 40 mM Alizarin Red S (Sigma) and washed extensively prior to imaging. To quantify calcium content in each sample, monolayers or whole fibrin gels were washed twice with PBS and then incubated with 0.5 N HCl overnight at 4° C. with agitation. Calcium content in the sample supernatants was quantified using a colorimetric Calcium LiquiColor Test (Stanbio). DNA content was quantified using a PicoGreen dsDNA quantitation kit (Molecular Probes) as previously described. Hutton D. L., et al., Tissue Eng Part A 18, 1729-40, 2012.
The effects of exogenous PDGF-BB on osteogenic differentiation and vascular morphogenesis of ASCs were studied independently. ASCs were cultured in OM for 21 days with the addition of either PDGF-BB (0 ng/mL, 2 ng/mL, or 20 ng/mL) or PDGF receptor inhibitor AG1295 (0 μM, 1 μM, or 10 μM).

[2] = tested on: ASCs; assay: Vascular morphogenesis of fibrin-encapsulated ASC spheroids in vascular medium
Description: Cells were trypsinized and resuspended at a concentration of 400,000 cells/mL (this concentration varied in the aggregation study where different cluster sizes were being compared) in culture medium containing 0.24% (w/v) methylcellulose (Sigma). The cell suspension was pipetted as 10 μL drops onto inverted Petri dish caps, which were then reverted and placed on dish bottoms containing sterile water to reduce evaporation. Dishes were incubated at 37° C. overnight to allow cellular aggregation at the air-liquid interface. The dish caps were then flooded with PBS to allow bulk collection and transfer of the spheroids to conical tubes.
(§3) Settled spheroid pellets were resuspended in fibrinogen (8 mg/mL final; Sigma), followed by the addition of thrombin (2.5 U/mL final; Sigma) to initiate gelation. Fibrin gels (35 μL) containing 40 spheroids each (in the aggregation study the number of spheroids per gel was varied to keep the total cell number constant) were pipetted into 6-mm diameter wells and incubated at 37° C. for 30 minutes to allow complete gelation prior to the addition of culture medium. Samples were then cultured for two to three weeks, depending on the experiment, with media changed every other day.
as §1
(§4) All incubation and washing steps were carried out at 4° C. with gentle agitation. Samples were fixed with 3.7% formaldehyde for 3 hrs, and then washed with PBS three times for 30 min each. Fixed gels were carefully removed from their wells and transferred to microcentrifuge tubes for subsequent staining procedures. Gels were permeabilized and blocked for 4 hrs with 0.2% triton X-100 and 5% normal goat serum (Sigma) in PBS with 0.1% Tween (PTw). Samples were then incubated overnight with primary antibodies diluted in blocking solution, followed by three 1-hr washes in PTw. Primary antibodies included: mouse anti-CD31 (4 μg/mL; Santa Cruz Biotechnology) and either rabbit anti-laminin (7 μg/mL; Sigma), rabbit anti-osteocalcin (10 μg/mL; Santa Cruz Biotechnology), or rabbit anti-NG2 (10 μg/mL; Millipore). Samples were then incubated overnight with DyLight 488-conjugated goat anti-mouse and DyLight 649-conjugated goat anti-rabbit (both 1:400; Jackson ImmunoResearch) diluted in blocking solution, followed by three 1-hr washes in PTw. Lastly, samples were blocked in 5% normal mouse serum for 4 hrs, incubated overnight with Cy3-conjugated mouse anti-αSMA (7 μg/mL; Sigma), and then washed three times for 1 hr each. Gels were mounted in 70% glycerol in chamber slides and imaged using a Zeiss LSM 510 confocal microscope with a 5× objective.
Confocal z-stacks of immunostained gels were z-projected and thresholded for subsequent quantification of vessel network parameters (n=6 images per group). Thresholded images were analyzed with AngioQuant software, Niemisto A., et al., IEEE Trans Med Imaging 24, 549-53, 2005, to quantify total vessel length, area, and interconnectivity. ImageJ software (NIH) was used to quantify pericyte coverage of vessels, which was defined as αSMA+ area within at least 5 μm of the abluminal face of vessel networks. […]

[3] = tested on: adipose-derived stem cells (ASCs); assay: Osteogenic differentiation of ASCs with transient cytokine exposure; details: IL-1β only for the first two days, then cultured without it
Text: In each case, the cytokine was provided for the first two days of culture and removed for the remaining 19 days. The samples are stained for calcium deposition (red) which is indicative of new bone formation;
Accordingly, cells were provided with IL-1β only for the first two days and cultured in the absence of IL-1β for the remaining three weeks of culture.

[4] = tested on: ASCs; assay: Vascularized bone co-development: encapsulated ASC spheroids, VM 8 days then OM 12 days
Description: as §3
as §1, with “viability.” for “viability. The composition of FGF-2 and dexamethasone in VM and OM were optimized to support both vascular and osteogenic development (FIG. 2).”
as §2, §4

[5] = medium optimization with dexamethasone and FGF-2

## Cc1cc2ncc(-c3ccccc3)nc2cc1C [AG1295, tyrphostin AG1295, reference compound]
[1]
  calcium deposition per cell: unchanged relative to the OM only group
  total calcium deposition: decreased in a dose dependent manner
[2]; VM for 14 days
  pericyte coverage: only slightly reduced

## FGF-2: fibroblast growth factor-2 (PeproTech)
[1]; 1 ng/mL FGF-2, dexamethasone 0 nM to 10 nM
  calcium deposition in osteogenic cultures: significantly greater calcium deposition
[2]; [5]
  pericyte coverage in vascular cultures: slight increase
  vessel network growth / length in vascular cultures: slight increase
  vessel width in vascular cultures: increased vessel width

## IL-1β: pro-inflammatory cytokine
[3]
  ASC differentiation into bone-forming cells: dose dependent effect

## PDGF-BB: exogenous platelet-derived growth factor-BB, dimeric glycoprotein of two B chains, purchased from PeproTech
[1]
  calcium deposition per cell: significantly increased in a dose-dependent manner
  total calcium deposition: significantly increased in a dose-dependent manner
[2]; 2 ng/mL, VM for 14 days
  increase in total vessel length: 1.4 fold
[2]; 20 ng/mL, VM for 14 days
  vessel width: noticeably wider
[2]; VM for 14 days
  effect on total vessel length overall: did not have statistically significant effects
  reduction of pericyte coverage: 2.9 fold
[4]; 20 ng/mL
  calcium content versus control group (VM-OM): substantially greater than both
  vascular network length versus control group (VM-OM): substantially greater than both
[4]; 20 ng/mL each
  calcium deposition, PDGF-BB greater than BMP-2: 4.2 fold
  calcium per cell, PDGF-BB greater than BMP-2: 5.6 fold
  total vascular network length, PDGF-BB higher than BMP-2: 2.3 fold
[4]; 20 ng/mL throughout
  calcium content per cell, greater than without PDGF-BB: 5.2 fold
  osteocalcin production (semiquantitative), greater than without PDGF-BB: 1.4 fold
  vascular network length, greater than without PDGF-BB: 2.7 fold
  αSMA intensity, less than without PDGF-BB: 2.1 fold
